Experimental data: ChEMBL document CHEMBL1151292, “Antineoplastic activity and cytotoxicity of flavones, isoflavones, and flavanones” (1979)
In brackets after ≈: the same amount, converted by molar mass. Activity calls are given as the source filed them.

Columns and labels:
[1] = tested on: CCRF S-180; test: In vivo antitumor activity against mouse S180 cells; assay type: functional, organism-based
[2] = tested on: L1210; test: In vivo antitumor activity against mouse L1210 cells; assay type: functional, organism-based
[3] = tested on: Lewis lung carcinoma cell line; test: In vivo antitumor activity against mouse LLC cells; assay type: functional, organism-based
[4] = tested on: CA-755; test: In vivo antitumor activity against mouse CA-755 cells; assay type: functional, organism-based
[5] = tested on: KB; test: Cytotoxicity against human KB cells; assay type: functional; details: read-out: ED50 (the source's name)

SMILES	Activity [1]	Activity [2]	Activity [3]	Activity [4]	EC50 [5] [µg/mL]
O=c1cc(-c2ccc(F)cc2)oc2ccccc12	inactive	inactive	inactive		
Nc1c(-c2ccccc2)oc2ccccc2c1=O	inactive	inactive		inactive	> 100
O=C1c2ccc(O)cc2OC(c2cc(O)c(O)c(O)c2)C1O (stereo not drawn) [DIHYDROBINETIN]	inactive	inactive		inactive	23 (≈ 75.6 µM)
O=C1C[C@@H](c2ccccc2)Oc2cc(O)cc(O)c21	inactive	inactive		inactive	
COc1ccc(-c2cc(=O)c3ccccc3o2)c(OC)c1OC	inactive	inactive	inactive	inactive	13 (≈ 41.6 µM)
O=C1CC(c2cccc(Cl)c2)Oc2ccccc21 (stereo not drawn)	inactive	inactive		Active	
COc1ccc(-c2oc3cc(O)cc(O)c3c(=O)c2OC)cc1	inactive	inactive		Active	
CC(=O)Oc1cc(O)c2c(=O)c(OC(C)=O)c(-c3ccc(OC(C)=O)c(OC(C)=O)c3)oc2c1	inactive	inactive		inactive	22 (≈ 46.8 µM)
COc1ccccc1-c1cc(=O)c2ccc(OC)c(OC)c2o1	inactive	inactive	inactive	inactive	4 (≈ 12.8 µM)
COc1ccc2c(c1)C(=O)CC(c1ccccc1OC)O2 (stereo not drawn)	inactive	inactive		inactive	24 (≈ 84.4 µM)
COc1ccc([C@@H]2CC(=O)c3c(O)cc(O)cc3O2)cc1O	inactive	inactive		inactive	
COc1c(OC)c(OC)c2c(c1OC)OC(c1ccc(O)cc1)CC2=O (stereo not drawn)	inactive	inactive		inactive	26 (≈ 72.1 µM)
O=C1CC(c2ccc(Cl)cc2Cl)Oc2ccc(Cl)cc21 (stereo not drawn)	inactive	inactive		inactive	
O=c1cc(-c2cccc([N+](=O)[O-])c2)oc2ccccc12	inactive	inactive		inactive	2 (≈ 7.48 µM)
Cc1oc2cc(O)ccc2c(=O)c1-c1ccccc1Br	inactive	inactive		inactive	66 (≈ 199 µM)
COc1cc2oc(-c3ccc(O)cc3)cc(=O)c2c(OC)c1OC	inactive	inactive		inactive	19 (≈ 57.9 µM)
COc1ccc(-c2cc(=O)c3c(OC)c(O)c(OC)cc3o2)cc1	inactive	inactive		inactive	
O=c1cc(-c2ccccc2F)oc2ccccc12	inactive	inactive	inactive		
O=c1cc(-c2ccccc2)oc2cc(O)ccc12	inactive	inactive	inactive		
COc1ccc(C2CC(=O)c3cc(OC)ccc3O2)cc1 (stereo not drawn)	inactive	inactive		inactive	

SMILES	Activity [1]	Activity [2]	Activity [3]	Activity [4]	EC50 [5] [µg/mL]
COc1ccc2c(c1)C(=O)CC(c1ccccc1)O2 (stereo not drawn)	Active	inactive		inactive	
O=C1CC(c2ccccc2Cl)Oc2ccccc21 (stereo not drawn)	inactive	inactive		inactive	
O=C1/C(=N\O)C(c2ccccc2)Oc2ccccc21 (stereo not drawn)	inactive	inactive		inactive	35 (≈ 138 µM)
COc1c(OC)c(OC)c2c(=O)cc(-c3ccc(OC(C)=O)cc3)oc2c1OC	inactive		inactive	inactive	3 (≈ 7.49 µM)
C[C@@H]1O[C@@H](Oc2c(-c3cc(O)c(O)c(O)c3)oc3cc(O)cc(O)c3c2=O)[C@H](O)[C@H](O)[C@H]1O	inactive	inactive	inactive	inactive	8.3 (≈ 17.9 µM)
O=c1cc(-c2ccc(O)cc2)oc2ccccc12	inactive	inactive		inactive	
COc1ccc(C2CC(=O)c3ccccc3O2)cc1 (stereo not drawn)	inactive	inactive		inactive	
O=c1cc(-c2ccccc2)oc2ccc(F)cc12	inactive		inactive		
COc1ccc(-c2cc(=O)c3c(OC)c(OC)c(OC)cc3o2)cc1	inactive	inactive		inactive	27 (≈ 78.9 µM)
COc1ccc(C2CC(=O)c3c(cc(OC)c(O)c3OC)O2)cc1 (stereo not drawn)	inactive	inactive		inactive	
COc1cc(-c2cc(=O)c3c(OC)c(OC)c(OC)c(OC)c3o2)cc(OC)c1OC [HEPATAMETHOXYFLAVONE]	inactive	inactive	inactive	inactive	0.5 (≈ 1.16 µM)
COc1c(OC)c(OC)c(-c2cc(=O)c3c(OC)c(OC)c(OC)c(OC)c3o2)c(OC)c1OC			inactive		4 (≈ 8.12 µM)
COc1cc(C)cc2c1OC(c1ccccc1)CC2=O.Cl (stereo not drawn)	inactive	inactive		inactive	26
COc1ccc([C@@H]2CC(=O)c3c(O)cc(O[C@@H]4O[C@H](CO[C@@H]5O[C@@H](C)[C@H](O)[C@@H](O)[C@H]5O)[C@@H](O)[C@H](O)[C@H]4O)cc3O2)cc1O	inactive	inactive		inactive	
O=C1c2ccc(O)cc2OC(c2ccc(O)c(O)c2)C1O (stereo not drawn)	inactive	inactive	inactive	inactive	
COc1ccc(C2CC(=O)c3c(OC(C)=O)cc(OC(C)=O)cc3O2)cc1OC(C)=O (stereo not drawn)	inactive	inactive		inactive	
O=C1c2ccccc2OC(Cl)(c2ccccc2)C1Cl (stereo not drawn)	inactive	inactive		inactive	
CC(=O)Nc1c(-c2ccccc2)oc2ccccc2c1=O	inactive	inactive		inactive	> 100
O=C1CC(c2ccccc2)Oc2ccc(Cl)cc21 (stereo not drawn)	inactive	inactive		inactive	1 (≈ 3.87 µM)
COc1ccc(-c2oc3ccc(C)cc3c(=O)c2O)cc1	inactive	inactive	inactive	inactive	2 (≈ 7.08 µM)

SMILES	Activity [1]	Activity [2]	Activity [3]	Activity [4]	EC50 [5] [µg/mL]
COc1ccc(-c2oc3cc(OC(C)=O)cc(OC(C)=O)c3c(=O)c2OC)cc1	inactive	inactive		Active	
COc1ccc(-c2cc(=O)c3c(OC)c(OC)c(OC)c(OC)c3o2)c(OC)c1	inactive		inactive		15 (≈ 37.3 µM)
O=c1c(-c2ccc(O)cc2)coc2cc(O)cc(O)c12 [GENISTEIN]	inactive	inactive		inactive	6.7 (≈ 24.8 µM)
COc1cc2c(c(OC)c1O)C(=O)CC(c1ccc(O)cc1)O2 (stereo not drawn)	inactive	inactive		inactive	
COc1cc(O)c2c(=O)c(OC)c(-c3ccc(OC)c(OC)c3)oc2c1 [RETUSIN]	inactive	inactive		inactive	41 (≈ 114 µM)
O=c1cc(-c2ccccc2)oc2ccccc12	inactive	inactive		inactive	
COc1ccc(-c2oc3cc(OC)ccc3c(=O)c2O)cc1		inactive	inactive	inactive	
O=c1cc(-c2cccc(F)c2)oc2ccccc12	inactive	inactive	inactive		
O=C1CC(c2ccc(O)cc2)Oc2cc(O)cc(O)c21 (stereo not drawn)	inactive	inactive	inactive	inactive	
CCOC(=O)c1oc2cc(O)cc(O)c2c(=O)c1-c1ccc(OC)cc1	inactive	inactive	Active		21 (≈ 58.9 µM)
O=C1CC(c2ccccc2Cl)Oc2ccc(Cl)cc21 (stereo not drawn)	inactive	inactive		inactive	
COc1ccc(C2CC(=O)c3c(cc(OC)c(OC)c3OC)O2)cc1 (stereo not drawn)	inactive	inactive		inactive	
COc1ccc2c(=O)c(N(S(C)(=O)=O)S(C)(=O)=O)c(-c3ccccc3)oc2c1CN(C)C	inactive	inactive		inactive	> 100
COc1cc(O)c2c(=O)c(O)c(-c3ccc(O)c(O)c3)oc2c1	inactive	inactive		inactive	
O=C1CC(c2ccc(Cl)cc2)Oc2ccccc21 (stereo not drawn)	inactive	inactive		inactive	
COc1cc2c(c(OC)c1OC)C(=O)CC(c1ccc(O)cc1)O2 (stereo not drawn)	inactive	inactive		inactive	
O=C1CC(c2ccc(Cl)cc2)Oc2ccc(Cl)cc21 (stereo not drawn)	inactive	inactive		inactive	
Cl.NC1C(=O)c2ccccc2OC1c1ccccc1 (stereo not drawn)	inactive	inactive		inactive	3
